Experimental findings from patent US20260265279A1, “RHO-ASSOCIATED PROTEIN KINASE INHIBITOR AND PREPARATION AND USE THEREOF” (Shanghai Zhimeng Biopharma, Inc, priority 2022, published 2026) are described below.

One assay addresses T1, ROCK2 (Homo sapiens, UniProt O75116).
T1 construct: purchased Invitrogen PV3759
In words: Kinase IC50 assay, HTRF kinEASE STK S2 kit, ROCK2. The format is biochemical. To be noted: ATP 1 μM, 2.5 ng/well enzyme, 120 min. The method, then:
(§1) Kinase IC50 assay was performed using the kinase assay kit HTRF kinEASE STK S2 kit (Cat #62ST2PEC, Cisbio). Kinases ROCK1 (Cat #PV3691) and ROCK2 (Cat #PV3759) were purchased from Invitrogen.
(§2) The working solution required for the assay was prepared with the appropriate reagents as described in the kinase assay kit instructions:
(§3) 1 mL of 1× Kinase Buffer contains 200 μL 5× Enzyme buffer, 5 μL 1M MgCl2 (Cat.M8266, Sigma), 1 μL 1M DTT (Cat.D5545, Sigma), 794 μL ddH2O.
(§4) The specific concentrations of STK-biotin substrate and ATP are shown in Table A. STK-biotin substrate and ATP were diluted with 1× kinase buffer to 2.5 times of the reaction concentration.
(§5) Concentrations of ROCK1/ROCK2 are shown in Table A. 5×ROCK1/ROCK2 Kinase working solution was prepared with 1× Kinase Buffer.
(§6) See Table A for the concentrations of Streptavidin-XL665 and STK Antibody-Cryptate in the reaction. 2× Streptavidin-XL665 and STK Antibody-Cryptate Working Solutions were prepared 5 minutes prior to the end of the kinase reaction using Detection Buffer from the kit.
(§7) A 100 μM compound mother solution was prepared using 1× kinase buffer containing 2.5% DMSO, and the mother solution was diluted 4-fold stepwise with the above DMSO-containing kinase buffer to obtain nine different concentrations of the compound solutions to be tested. In addition to the test compound wells, positive control wells (containing all reagents except the compounds) and negative control wells (containing all reagents except the compounds and kinase) were set up. 4 μL of the test compound solution was added to all reaction wells except the control wells and 4 μL of 2.5% DMSO solution was added to the control wells. Then 4 μL of previously prepared substrate and ATP working solution were added to all wells and mix well. Then, 2 μL/well of 5×ROCK1/ROCK2 kinase working solution (containing 2.5 ng ROCK1/ROCK2 kinase) was added to all reaction wells except negative control wells, and the negative control wells were made up to volume with 2 μL of 1× kinase buffer. Mix well, seal with plastic film and incubate at room temperature for 2 hours. Start preparing the assay solution 5 minutes before the end of the kinase reaction. After the end of the kinase reaction, 10 μL of prepared Streptavidin-XL665 and STK Antibody-Cryptate working solution were added to all reaction wells, the plates were sealed and mixed well, and then incubated at room temperature for 1 hour. Finally, the fluorescence signal was detected by SpectraMax i3x Multi-Mode Reader (Molecular Devices) (excitation wavelength is 320 nm, emission wavelength is 665 nm and 615 nm).
(§8) The inhibition rate in each well was calculated from the fluorescence intensity values of each well:
(§9) ER Emission Ratio, Emission light ratio=fluorescence intensity at 665 nm/fluorescence intensity at 615 nm;
(§10) ERcompound, ER of test compound wells; ERvehicle, ER of solvent (positive) control wells, ERblank, ER of blank (negative) control wells.
(§11) The graphs were plotted using the software GraphPad Prism 6.0, while the half inhibitory concentration (IC50) of each compound to be tested was obtained by fitting with Prism 6.0.
For orientation: TR-FRET usually uses a lanthanide donor and a delayed reading to cut background.

The next assay deals with T2, ROCK1 (Homo sapiens, UniProt Q13464).
T2 construct: purchased Invitrogen PV3691
In words: Kinase IC50 assay, HTRF kinEASE STK S2 kit, ROCK1. The settings on record: ATP 1.5 μM, 2.5 ng/well enzyme, 120 min. The format is biochemical. The method, then: as §1, §2, §3, §4, §5, §6, §7, §8, §9, §10, §11

T2 sequence (Q13464 1-535 limits assumed): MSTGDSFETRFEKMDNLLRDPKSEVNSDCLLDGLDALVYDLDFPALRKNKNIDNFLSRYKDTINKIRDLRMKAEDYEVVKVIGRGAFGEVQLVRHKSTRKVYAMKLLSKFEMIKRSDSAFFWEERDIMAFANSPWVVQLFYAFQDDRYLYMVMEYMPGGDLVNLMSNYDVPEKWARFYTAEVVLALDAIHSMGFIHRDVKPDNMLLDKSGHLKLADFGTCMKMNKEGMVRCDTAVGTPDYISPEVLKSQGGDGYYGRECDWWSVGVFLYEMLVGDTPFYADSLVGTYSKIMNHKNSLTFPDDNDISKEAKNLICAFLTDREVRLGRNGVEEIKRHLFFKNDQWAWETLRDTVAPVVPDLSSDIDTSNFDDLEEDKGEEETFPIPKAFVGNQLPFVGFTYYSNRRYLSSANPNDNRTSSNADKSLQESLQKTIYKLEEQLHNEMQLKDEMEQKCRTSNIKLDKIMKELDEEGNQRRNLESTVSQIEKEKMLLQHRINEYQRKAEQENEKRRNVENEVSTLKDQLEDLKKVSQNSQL
T1 sequence (O75116 5-554 limits assumed): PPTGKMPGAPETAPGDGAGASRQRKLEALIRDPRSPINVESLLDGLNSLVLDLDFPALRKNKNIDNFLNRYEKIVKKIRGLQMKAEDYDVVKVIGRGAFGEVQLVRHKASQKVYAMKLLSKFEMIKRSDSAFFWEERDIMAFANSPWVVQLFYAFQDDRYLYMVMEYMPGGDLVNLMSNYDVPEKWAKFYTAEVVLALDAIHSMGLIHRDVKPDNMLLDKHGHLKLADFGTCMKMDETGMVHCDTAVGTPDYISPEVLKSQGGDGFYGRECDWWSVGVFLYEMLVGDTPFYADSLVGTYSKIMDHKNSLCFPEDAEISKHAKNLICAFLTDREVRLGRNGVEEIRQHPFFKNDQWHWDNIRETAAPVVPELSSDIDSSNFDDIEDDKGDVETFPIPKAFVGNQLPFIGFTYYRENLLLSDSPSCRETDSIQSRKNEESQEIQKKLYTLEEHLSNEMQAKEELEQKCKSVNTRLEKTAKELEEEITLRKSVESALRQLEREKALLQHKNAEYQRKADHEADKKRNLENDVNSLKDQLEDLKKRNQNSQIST

`Cn1c(C#Cc2nccc(Nc3ccc4[nH]ncc4c3)n2)ccc1C(=O)N1CC(F)(F)C1` [Compound A2]: the IC50 – broadly, the concentration that gives 50% inhibition – at ROCK2 came to 0.303 µM; against ROCK1 it was 3.9 µM.

Take `Cc1cnc(C#Cc2ccc(C(=O)N3CC(F)(F)C3)n2C)nc1Nc1ccc(-c2cn[nH]c2)cc1` [Compound A4]: the IC50 on ROCK2 worked out at 0.186 µM; against ROCK1, 80 µM.

For the compound `Cc1cc(Nc2ccc(-c3cn[nH]c3)cc2)nc(C#Cc2ccc(C(=O)N3CC(F)(F)C3)n2C)n1` [Compound A5], the IC50 at ROCK2 was 0.091 µM; at ROCK1, over 100 µM.

For `Cc1nc(C#Cc2ccc(C(=O)N3CC(F)(F)C3)n2C)nc(Nc2ccc(-c3cn[nH]c3)cc2)c1C` [Compound A6], the IC50 against ROCK2 came to 0.202 µM; on ROCK1, 35.2 µM.

Turning to `Cn1c(C#Cc2ncc(F)c(Nc3ccc(-c4cn[nH]c4)cc3)n2)ccc1C(=O)N1CC(F)(F)C1` [Compound A7], the IC50 against ROCK2 was 0.0544 µM; against ROCK1, over 100 µM.

For the compound `Cn1c(C#Cc2ncc(C#N)c(Nc3ccc(-c4cn[nH]c4)cc3)n2)ccc1C(=O)N1CC(F)(F)C1` [Compound A8], the figures for the IC50 against ROCK2 and against ROCK1 were 3.49 µM and over 100 µM, respectively.

As to `Cn1c(C#Cc2ncnc(Nc3ccc(-c4cn[nH]c4)cc3)n2)ccc1C(=O)N1CC(F)(F)C1` [Compound A9], the IC50 is 0.702 µM against ROCK2 and over 100 µM at ROCK1.

Consider `Cn1c(C#Cc2nc3c(c(Nc4ccc(-c5cn[nH]c5)cc4)n2)COC3)ccc1C(=O)N1CC(F)(F)C1` [Compound A10], for which the IC50 against ROCK2 is 0.0778 µM; against ROCK1, over 100 µM.

In the case of `CN1Cc2nc(C#Cc3ccc(C(=O)N4CC(F)(F)C4)n3C)nc(Nc3ccc(-c4cn[nH]c4)cc3)c2C1` [Compound A11], the IC50 on ROCK2 was 0.0867 µM; against ROCK1 it was over 100 µM.

As to `Cc1cc(Nc2ccnc(C#Cc3ccc(C(=O)N4CC(F)(F)C4)n3C)n2)ccc1-c1cn[nH]c1` [Compound A12], the IC50 stood at 0.199 µM at ROCK2 and 32.3 µM on ROCK1.

Turning to `Cc1n[nH]c(C)c1-c1ccc(Nc2ccnc(C#Cc3ccc(C(=O)N4CC(F)(F)C4)n3C)n2)cc1` [Compound A14], the IC50 is 0.585 µM at ROCK2 and over 100 µM at ROCK1.

In the case of `Cn1c(C#Cc2ncc(F)c(Nc3ccc(-c4c[nH]nc4F)cc3)n2)ccc1C(=O)N1CC(F)(F)C1` [Compound A15], the IC50 was 0.421 µM at ROCK2 and over 100 µM at ROCK1.

Regarding `Cc1[nH]ncc1-c1ccc(Nc2nc(C#Cc3ccc(C(=O)N4CC(F)(F)C4)n3C)ncc2F)cc1` [Compound A16], the figures for the IC50 on ROCK2 and against ROCK1 were 0.0349 µM and 29.6 µM, respectively.

For `Cn1nc(C#Cc2nccc(Nc3ccc(-c4cn[nH]c4)cc3)n2)cc1C(=O)N1CC(F)(F)C1` [Compound A17], the concentration for half-maximal inhibition (IC50) against ROCK2 turned out to be 1.06 µM; against ROCK1, 50.3 µM.

In the case of `Cn1cc(C#Cc2nccc(Nc3ccc(-c4cn[nH]c4)cc3)n2)cc1C(=O)N1CC(F)(F)C1` [Compound A18], the IC50 on ROCK2 came out at 2.35 µM; on ROCK1 it was 53.8 µM.

Consider `O=C(c1ccc(C#Cc2nccc(Nc3ccc(-c4cn[nH]c4)cc3)n2)s1)N1CC(F)(F)C1` [Compound A19], for which the values for the IC50 against ROCK2 and on ROCK1 were 50.5 µM and over 100 µM, respectively.

As to `O=C(c1cccc(C#Cc2nccc(Nc3ccc(-c4cn[nH]c4)cc3)n2)n1)N1CC(F)(F)C1` [Compound A20], the IC50 against ROCK2 was 0.206 µM; against ROCK1, over 100 µM.

`O=C(c1ccc(C#Cc2nccc(Nc3ccc(-c4cn[nH]c4)cc3)n2)nc1)N1CC(F)(F)C1` [Compound A21]: the IC50 was 0.754 µM against ROCK2 and over 100 µM against ROCK1.

For the compound `Cc1c(Nc2ccnc(C#Cc3ccc(C(=O)N4CC(F)(F)C4)n3C)n2)ccc2[nH]ncc12` [Compound A22], the IC50 on ROCK2 worked out at 3.59 µM; against ROCK1, 40.9 µM.

Turning to `Cn1c(C#Cc2ncc(F)c(Nc3ccc4c(=O)[nH]ccc4c3)n2)ccc1C(=O)N1CC(F)(F)C1` [Compound A27], the IC50 against ROCK2 is 0.274 µM; at ROCK1 it was over 100 µM.

As for `O=C(c1ccc(C#Cc2nccc(Nc3ccc(-c4cn[nH]c4)cc3)n2)cc1)N1CC(F)(F)C1` [Compound A28], the IC50 at ROCK2 was 1.1 µM; against ROCK1, over 100 µM.

As to `O=C(c1cccc(C#Cc2nccc(Nc3ccc(-c4cn[nH]c4)cc3)n2)c1)N1CC(F)(F)C1` [Compound A29], the IC50 at ROCK2 was found to be 2 µM; at ROCK1 it was 57.1 µM.

Regarding `O=C(c1ccc(C#Cc2nccc(Nc3ccc(-c4cn[nH]c4)cc3)n2)n1C1CC1)N1CC(F)(F)C1` [Compound A30], the IC50 at ROCK2 was found to be 0.118 µM; at ROCK1, 41.9 µM.

As for `CCn1c(C#Cc2nccc(Nc3ccc(-c4cn[nH]c4)cc3)n2)ccc1C(=O)N1CC(F)(F)C1` [Compound A32], the IC50 against ROCK2 worked out at 0.232 µM; against ROCK1 it was 30.7 µM.

For the compound `Cn1c(C#Cc2nc(Nc3ccc(-c4cn[nH]c4)cc3)c3ccccc3n2)ccc1C(=O)N1CC(F)(F)C1` [Compound A37], the IC50 on ROCK2 was 0.42 µM; on ROCK1, over 100 µM.

For the compound `O=C1c2ccc(C#Cc3ncc(F)c(Nc4ccc(-c5cn[nH]c5)cc4)n3)n2CCN1CC(F)(F)F` [Compound A38], the figures for the IC50 against ROCK2 and against ROCK1 were 0.445 µM and over 100 µM, respectively.

As for `Cc1cc(C(=O)N2CC(F)(F)C2)n(C)c1C#Cc1ncc(F)c(Nc2cc(F)c(-c3cn[nH]c3)c(F)c2)n1` [Compound A40], the IC50 is 0.0172 µM against ROCK2 and over 100 µM against ROCK1.

On to `Cc1cc(C(=O)N2CC(F)(F)C2)n(C)c1C#Cc1ncc(F)c(Nc2cnc(-c3cn[nH]c3)c(F)c2)n1` [Compound A41], for which the IC50 against ROCK2 was 0.0724 µM; against ROCK1 it was over 100 µM.

Take `Cc1cc(C(=O)N2CC(F)(F)C2)n(C)c1C#Cc1ncc(F)c(Nc2ccc(-c3cn[nH]c3)c(F)c2)n1` [Compound A42]: the IC50 against ROCK2 was determined as 0.005 µM; against ROCK1, 4.93 µM.

With `Cc1cc(C(=O)N2CC(F)(F)C2)n(C)c1C#Cc1ncc(F)c(Nc2cc(F)c(-c3cn[nH]c3C)c(F)c2)n1` [Compound A43], the figures for the IC50 against ROCK2 and against ROCK1 were 0.0515 µM and 20.6 µM, respectively.

As for `Cc1cc(C(=O)N2CC(F)(F)C2)n(C)c1C#Cc1ncc(F)c(Nc2ccc(-c3cn[nH]c3C)cc2)n1` [Compound A44], the values for the IC50 on ROCK2 and against ROCK1 were 0.0127 µM and over 100 µM, respectively.

Turning to `Cc1cc(C(=O)N2CC(F)(F)C2)n(C)c1C#Cc1nc(C)c(F)c(Nc2ccc(-c3cn[nH]c3)c(F)c2)n1` [Compound A45], the IC50 on ROCK2 was 0.0352 µM; at ROCK1 it was 8.8 µM.

Regarding `O=C(c1cccc(C#Cc2ncc(F)c(Nc3cc(F)c(-c4cn[nH]c4)cc3F)n2)n1)N1CC(F)(F)C1` [Compound A46], the IC50 was 0.161 µM on ROCK2 and over 100 µM at ROCK1.

With `Cc1cc(C(=O)N2CC(F)(F)C2)n(C)c1C#Cc1ncc(F)c(Nc2cc(F)c(-c3cn[nH]c3C)cc2F)n1` [Compound A47], the results for the IC50 against ROCK2 and against ROCK1 were 0.476 µM and over 100 µM, respectively.

Turning to `Cc1cc(C(=O)N2CC(F)(F)C2)n(C)c1C#Cc1ncc(F)c(Nc2cnc(-c3cn[nH]c3C)cc2F)n1` [Compound A48], the results for the IC50 against ROCK2 and on ROCK1 were 0.0377 µM and 18.4 µM, respectively.

As to `Cc1cc(C(=O)N2CC(F)(F)C2)n(C)c1C#Cc1ncc(F)c(Nc2cc(F)c(-c3cn[nH]c3)cc2F)n1` [Compound A49], the IC50 against ROCK2 is 0.0177 µM; on ROCK1, 37.4 µM.

Take `Cc1cc(C(=O)N2CC(F)(F)C2)n(C)c1C#Cc1nc2c(c(Nc3cc(F)c(-c4cn[nH]c4)c(F)c3)n1)COC2` [Compound A50]: the IC50 on ROCK2 amounted to 0.0089 µM; on ROCK1, 0.073 µM.

In the case of `Cc1cc(C(=O)N2CC(F)(F)C2)n(C)c1C#Cc1ncc(F)c(Nc2ccc(-c3cn[nH]c3C)cc2F)n1` [Compound A51], the values for the IC50 at ROCK2 and against ROCK1 were 0.131 µM and over 100 µM, respectively.

As for `Cn1c(C(=O)N2CC(F)(F)C2)cc(C2CC2)c1C#Cc1ncc(F)c(Nc2cc(F)c(-c3cn[nH]c3)cc2F)n1` [Compound A54], the IC50 is 0.0192 µM on ROCK2 and 64 µM against ROCK1.

Turning to `CC(C)c1cc(C(=O)N2CC(F)(F)C2)n(C)c1C#Cc1ncc(F)c(Nc2cc(F)c(-c3cn[nH]c3)cc2F)n1` [Compound A55], the values for the IC50 against ROCK2 and on ROCK1 were 0.0573 µM and over 100 µM, respectively.
